Measurements taken from US12435061B2 (priority 2020, dated 2025).
Converted amounts (≈) assume the structure as drawn. Read-outs that look alike come from different tables or passages of the source.

Columns and labels:
[1] = molecular target: hTRPV3 (Homo sapiens (Human), UniProt Q8NET8); experiment: Whole-cell patch clamp, hTRPV3 Phase 1 / Phase 2 currents; assay type: cell-based
Procedure, shortened: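 Currents are activated by 20 μM 2-APB or by perfusate at 28 °C or warmer, in Ringer's solution, and quantified at ±80 mV.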

[2] = Aqueous solubility assay in Normal Ringer Solution; conditions: Normal Ringer Solution; for solubility at 40 min: saline or isotonic, kinetic from dmso stock
Protocol: Following vortex and incubation for a sufficient time (e.g. 40 minutes at room temperature), solutions were filtered, quenched with acetonitrile, and analyzed by Liquid Chromotography. Solubility Limits were determined by comparison to a standard curve.

[3] = Metabolic Stability assay, rat liver microsomes; assay type: in vitro ADME
Protocol: Metabolic Stability assay: The metabolic stability was determined by adding compound dissolved in DMSO to human or rat, liver microsomes. Briefly, assays were run with a starting concentration of 1 μM test article. The reaction was started by addition of NADPH regeneration components at 37° C. at which time an aliquot was immediately quenched in ice-cold acetonitrile/MeOH/H2O solution. Reaction mixture was incubated at 37° C. on a shaker, and additional aliquots were taken at 7, 15, 30 and 60 minutes. Following quench and centrifugation, samples were analyzed on HPLC/MS/MS.

[4] = Phase 1 current, inward, whole-cell patch clamp, read-out: hTRPV3 Patch P1 Inwd
[5] = Phase 1 current, read-out: hTRPV3 (nM) (Phase 1)
[6] = Phase 1 current, human TRPV3, read-out: hTRPV3 (nM) Phase 1
[7] = Phase 2 current, inward, whole-cell patch clamp, read-out: hTRPV3 Patch P2 Inwd
[8] = Phase 2 current, read-out: hTRPV3 (nM) (Phase 2)

Chain of hTRPV3 (Q8NET8 whole entry): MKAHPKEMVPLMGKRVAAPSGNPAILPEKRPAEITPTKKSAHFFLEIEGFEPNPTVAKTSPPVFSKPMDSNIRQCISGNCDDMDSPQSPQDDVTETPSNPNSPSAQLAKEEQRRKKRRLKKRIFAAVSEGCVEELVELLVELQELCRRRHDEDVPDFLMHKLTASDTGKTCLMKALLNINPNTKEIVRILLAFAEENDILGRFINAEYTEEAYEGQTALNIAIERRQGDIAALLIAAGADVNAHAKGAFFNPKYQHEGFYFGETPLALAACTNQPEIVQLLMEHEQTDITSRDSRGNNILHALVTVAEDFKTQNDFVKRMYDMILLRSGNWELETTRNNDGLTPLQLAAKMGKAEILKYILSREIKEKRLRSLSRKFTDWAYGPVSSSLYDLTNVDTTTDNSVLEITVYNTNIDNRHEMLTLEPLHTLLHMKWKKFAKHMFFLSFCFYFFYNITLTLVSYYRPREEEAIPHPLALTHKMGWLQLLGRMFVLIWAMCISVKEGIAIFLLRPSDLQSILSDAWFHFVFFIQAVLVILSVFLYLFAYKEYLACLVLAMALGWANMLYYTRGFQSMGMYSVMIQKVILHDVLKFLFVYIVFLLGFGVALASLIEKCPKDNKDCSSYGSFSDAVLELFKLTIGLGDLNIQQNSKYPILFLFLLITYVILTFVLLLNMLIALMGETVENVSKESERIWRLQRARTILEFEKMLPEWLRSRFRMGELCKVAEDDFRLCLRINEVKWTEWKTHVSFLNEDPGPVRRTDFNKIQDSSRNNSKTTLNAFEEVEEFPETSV

Row | SMILES | IC50 [1, 4] | IC50 [1, 5] | solubility at 40 min [2] | half-life at 1 μM ([3]; read-out: LM T1/2 (min) (rat)) | IC50 [1, 6] | half-life at 1 μM ([3]; read-out: LM T1/2 (min) rat) | other results
1 | Cc1ccccc1C(=O)c1ccc(N2CC[C@H](Oc3ncccc3F)C2)c(CO)c1 [Compound 1-243, (S)-(4-(3-(3-fluoropyridin-2-yloxy)pyrrolidin-1-yl)-3-(hydroxymethyl)phenyl)(o-tolyl)methanone] | 100 to 1000 nM | 296 nM | ~7.34 µM (≈ 2.98 µg/mL) | 6.26 min |  |  | 
2 | COCc1ccccc1Oc1ccc(N2CC[C@H](Oc3ncccc3Cl)C2)c(CCO)c1 [Compound 1-297, (S)-2-(2-(3-(3-chloropyridin-2-yloxy)pyrrolidin-1-yl)-5-(2-(methoxymethyl)phenoxy)phenyl)ethanol] | 10 to 100 nM | 56.6 nM | 1.4 µM (≈ 0.637 µg/mL) | 7.44 min |  |  | 
3 | CCc1ccccc1-c1ccc(C2CCN(C(=O)c3ccc(F)cn3)C2)c(C(N)=O)c1 (centres unmarked) [Compound 2-34, 2′-ethyl-4-(1-(5-fluoropicolinoyl)pyrrolidin-3-yl)biphenyl-3-carboxamide] | 100 to 1000 nM |  |  |  | 337 nM | 26.4 min | 
4 | CCc1cc(F)ccc1Oc1ccc(N2CC[C@H](Oc3ccccn3)C2)c(CO)c1 [Compound 1-330] | 10 to 100 nM | 49.5 nM |  | 24.8 min |  |  | IC50 [1, 7]: 10 to 100 nM; IC50 [1, 8]: 56.6 nM
5 | CC(C)c1ccccc1Oc1ccc(N2CC[C@H](Oc3ccccn3)C2)c(CO)c1 [Compound 1-316] | < 10 nM | 7.77 nM | > 4 µM | 18.9 min |  |  | 
6 | CCc1ccccc1C(=O)c1ccc(N2CC[C@H](Oc3ncccc3Cl)C2)c(CO)c1 [Compound 1-251, (S)-(4-(3-(3-chloropyridin-2-yloxy)pyrrolidin-1-yl)-3-(hydroxymethyl)phenyl)(2-ethylphenyl)methanone] | 10 to 100 nM | 102 nM |  |  |  |  | Solubility Ringer ([2]; room temperature): >3.6 µM; LM T1/2 (min) (rat) ([3]; 1 μM): 6.25 (rat) min
7 | Cc1ccccc1Oc1ccc(N2CC[C@H](Nc3ncccc3Cl)C2)c(CO)c1 [Compound 1-383, (S)-(2-(3-(3-chloropyridin-2-ylamino)pyrrolidin-1-yl)-5-(o-tolyloxy)phenyl)methanol] | 10 to 100 nM | 12.6 nM | ~0.35 µM (≈ 0.143 µg/mL) | 31.4 min |  |  | 
8 | OCc1cc(Oc2cccc(Cl)c2)ccc1N1CC[C@H](Oc2ccccn2)C1 [Compound 1-304] | 10 to 100 nM | 55.8 nM | ~1 µM (≈ 0.397 µg/mL) | 17.5 min |  |  | 
9 | OCCc1cc(Oc2ccccc2F)ccc1N1CC[C@H](Oc2ncccc2F)C1 [Compound 1-313, (S)-2-(5-(2-fluorophenoxy)-2-(3-(3-fluoropyridin-2-yloxy)pyrrolidin-1-yl)phenyl)ethanol] | 10 to 100 nM | 72.5 nM | ~2 µM (≈ 0.825 µg/mL) | 9.29 min |  |  | IC50 [1, 7]: 10 to 100 nM; IC50 [1, 8]: 71.3 nM
10 | CCc1ccccc1Oc1ccc(N2CC[C@H](Oc3ncccc3C)C2)c(CO)c1 [Compound 1-268, (S)-(5-(2-ethylphenoxy)-2-(3-(3-methylpyridin-2-yloxy)pyrrolidin-1-yl)phenyl)methanol] | < 10 nM | 2.8 nM | 0.25 µM (≈ 0.101 µg/mL) | 22 min |  |  | IC50 [1, 7]: < 10 nM; IC50 [1, 8]: ~2.54 nM
11 | CCc1ccccc1-c1ccc(C2CCN(C(=O)c3ccc(C)cn3)C2)c(CO)c1 (centres unmarked) [Compound 2-50, (3-(2′-ethyl-3-(hydroxymethyl)biphenyl-4-yl)pyrrolidin-1-yl)(5-methylpyridin-2-yl) methanone] | 10 to 100 nM |  | ~3.9 µM (≈ 1.56 µg/mL) |  | 89.8 nM | 8.67 min | 
12 | Oc1cc(-c2ccccc2Cl)ccc1N1CC[C@@H](Oc2ccc(C(F)(F)F)cn2)C1 [Compound 1-113, (R)-2′-chloro-4-(3-(5-(trifluoromethyl)pyridin-2-yloxy)pyrrolidin-1-yl)biphenyl-3-ol] | 100 to 1000 nM | ~97.5 nM |  | 33.5 min |  |  | IC50 [1, 7]: 100 to 1000 nM; IC50 [1, 8]: 109 nM; Solubility Ringer (nM) ([2]; room temperature): BLQ
13 | Cc1cccnc1C(=O)N1CCC(c2ccc(Oc3ccccc3C(C)C)cc2CO)C1 (centres unmarked) [Compound 2-18, (3-(2-(hydroxymethyl)-4-(2-isopropylphenoxy)phenyl)pyrrolidin-1-yl)(3-methylpyridin-2-yl)methanone] | 100 to 1000 nM |  |  |  | 314 nM | 7.81 min | 
14 | CCc1ccccc1-c1ccc(C2CCN(C(=O)c3ccccn3)C2)c(CO)c1 (centres unmarked) [Compound 2-27, (3-(2′-ethyl-3-(hydroxymethyl)biphenyl-4-yl)pyrrolidin-1-yl)(pyridin-2-yl)methanone] | 10 to 100 nM |  |  |  | 73 nM | 12.9 min | 
15 | CC(C)c1ccccc1Oc1ccc(C2CCN(C(=O)Cc3ccccn3)C2)c(CO)c1 (centres unmarked) [Compound 2-116] |  |  |  |  | ~3500 nM | 3.62 min | IC50 ([1]; Phase 2 current, human TRPV3, read-out: hTRPV3 (nM) Phase 2): 2600 nM
16 | Cc1ccccc1C(O)c1ccc(N2CC[C@H](Oc3ncccc3F)C2)c(CO)c1 (stereo partly drawn) [Compound 1-231, (4-((S)-3-(3-fluoropyridin-2-yloxy)pyrrolidin-1-yl)-3-(hydroxymethyl)phenyl)(o-tolyl)methanol] |  |  | > 26.8 µM | 16.3 min |  |  | 
17 | CC(C)c1ccccc1-c1ccc(C2CCN(C(=O)c3ncccc3Cl)C2)c(CO)c1 (centres unmarked) [Compound 2-36] | 10 to 100 nM |  |  |  | 39.3 nM | 11.2 min | 
18 | O=C(c1cccc(Cl)n1)N1CCC(c2ccc(-c3ccccc3C3CC3)cc2CO)C1 (centres unmarked) [Compound 2-57, (6-chloropyridin-2-yl)(3-(2′-cyclopropyl-3-(hydroxymethyl)biphenyl-4-yl)pyrrolidin-1-yl)methanone] | < 10 nM |  |  |  | 7.34 nM | 32.3 min | 
19 | Cc1ccccc1Oc1ccc(C2CCN(Cc3ncccc3Cl)C2)c(CO)c1 (centres unmarked) [Compound 2-86] | 100 to 1000 nM |  | ~2.2 µM (≈ 0.9 µg/mL) |  | 226 nM |  | 
20 | OC[C@@H]1C[C@@H](Oc2ccc(C(F)(F)F)cn2)CN1c1ccc(-c2ccccc2)cc1 [Compound 1-175] | > 1000 nM | > 3200 nM | ~0.68 µM (≈ 0.282 µg/mL) |  |  |  | IC50 [1, 7]: > 1000 nM; IC50 [1, 8]: > 3200 nM
21 | N#Cc1ccc(O[C@H]2CCN(c3ccc(-c4ccccc4)cc3CO)C2)nc1 [Compound 1-143, (S)-6-(1-(3-(hydroxymethyl)biphenyl-4-yl)pyrrolidin-3-yloxy)nicotinonitrile] | 100 to 1000 nM | 337 nM | 1.4 µM (≈ 0.52 µg/mL) |  |  |  | 
22 | CC(C)c1ccccc1Oc1ccc(C2CCN(C(=O)c3ccc(Cl)cn3)C2)c(CO)c1 (centres unmarked) [Compound 2-17, (5-chloropyridin-2-yl)(3-(2-(hydroxymethyl)-4-(2-isopropylphenoxy)phenyl)pyrrolidin-1-yl)methanone] | 10 to 100 nM |  |  |  | 57.4 nM | 7.93 min | 
23 | CC(C)c1ccccc1Oc1ccc(C2CCN(C(=O)c3ccc(Cl)cn3)C2)c(C(N)=O)c1 (centres unmarked) [Compound 2-32, 2-(1-(5-chloropicolinoyl)pyrrolidin-3-yl)-5-(2-isopropylphenoxy)benzamide] | 100 to 1000 nM |  |  |  | 677 nM | 6.86 min | 
24 | COc1ccccc1-c1ccc(N2CC[C@H](Oc3ccc(F)cn3)C2)c(CO)n1 [Compound 1-209, (S)-(3-(3-(5-fluoropyridin-2-yloxy)pyrrolidin-1-yl)-6-(2-methoxyphenyl)pyridin-2-yl)methanol] | > 1000 nM | 3470 nM | ~2.3 µM (≈ 0.909 µg/mL) |  |  |  | 
25 | Cc1cccc(C(=O)N2CCC(c3ccc(Oc4ccccc4C(C)C)cc3C(N)=O)C2)n1 (centres unmarked) [Compound 2-33, 5-(2-isopropylphenoxy)-2-(1-(6-methylpicolinoyl)pyrrolidin-3-yl)benzamide] | 100 to 1000 nM |  |  |  | 645 nM | 11 min | 
26 | NS(=O)(=O)c1cc(-c2ccccc2)ccc1N1CC[C@@H](Oc2ccc(C(F)(F)F)cn2)C1 [Compound 1-102] | > 1000 nM |  | ~0.23 µM (≈ 0.107 µg/mL) |  |  |  | IC50 [1, 7]: > 1000 nM
27 | OCc1cc([C@H](O)c2ccccc2Cl)ccc1N1CC[C@H](Oc2ncccc2F)C1 [Compound 1-322, (2-chlorophenyl)(4-((S)-3-(3-fluoropyridin-2-yloxy)pyrrolidin-1-yl)-3-(hydroxymethyl)phenyl)methanol] | 100 to 1000 nM | 794 nM | > 9.3 µM |  |  |  | 
28 | NC(=O)c1ccccc1-c1ccc(N2CC[C@H](Oc3ccc(C(F)(F)F)cn3)C2)c(CO)c1 [Compound 1-159, (S)-3′-(hydroxymethyl)-4′-(3-(5-(trifluoromethyl)pyridin-2-yloxy)pyrrolidin-1-yl)biphenyl-2-carboxamide] | > 1000 nM | > 3200 nM | > 16.6 µM |  |  |  | IC50 [1, 7]: > 1000 nM; IC50 [1, 8]: > 3200 nM
29 | Cc1ccc(O[C@H]2CCN(c3ccc(Oc4ccccc4C)nc3CO)C2)nc1 [Compound 1-203, (S)-(3-(3-(5-methylpyridin-2-yloxy)pyrrolidin-1-yl)-6-(o-tolyloxy)pyridin-2-yl)methanol] | > 1000 nM | ~5050 nM | ~1.4 µM (≈ 0.548 µg/mL) |  |  |  | IC50 [1, 7]: > 1000 nM; IC50 [1, 8]: 3270 nM
